The values that follow are results of earlier work, collected in patent US9206425B2, “Methods for treating Niemann-Pick type C disease” (Trustees of Dartmouth College, priority 2011, dated 2015).

Read-outs that look alike come from different tables or passages of the source.

In one data set the test system is human macrophages. The conditions noted are these: in vitro.
For data set [1], the system named is mouse model for Alzheimer disease.
In data set [2] the test system is coronary atherosclerosis / familial hypercholesterolemia.
The subject of a further data set is NPC disease. The settings on record: humans, two-year study.
The test system of a further data set is ACAT1 and ACAT2. The settings on record: Kitayama et al. 2006.
Data set [3] deals with T1, ACAT1 (Homo sapiens, UniProt P35610).
T1 sequence (P35610 1-550): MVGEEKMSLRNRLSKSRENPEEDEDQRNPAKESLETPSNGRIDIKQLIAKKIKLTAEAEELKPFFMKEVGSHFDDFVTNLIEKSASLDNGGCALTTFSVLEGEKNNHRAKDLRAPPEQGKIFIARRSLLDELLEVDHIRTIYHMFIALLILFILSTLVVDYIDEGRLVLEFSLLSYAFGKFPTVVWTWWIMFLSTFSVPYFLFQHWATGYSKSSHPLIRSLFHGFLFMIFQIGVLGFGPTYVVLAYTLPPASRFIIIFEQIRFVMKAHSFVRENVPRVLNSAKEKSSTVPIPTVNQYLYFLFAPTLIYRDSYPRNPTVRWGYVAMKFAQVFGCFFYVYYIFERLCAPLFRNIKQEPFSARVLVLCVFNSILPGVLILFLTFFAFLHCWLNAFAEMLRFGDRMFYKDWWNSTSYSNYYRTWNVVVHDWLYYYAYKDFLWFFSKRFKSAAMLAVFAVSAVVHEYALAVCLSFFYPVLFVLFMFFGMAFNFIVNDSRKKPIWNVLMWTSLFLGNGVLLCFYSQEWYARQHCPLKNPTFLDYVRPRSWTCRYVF
The settings on record: Cho et al. 2003.

Another data set addresses T2, hACAT-2 (Homo sapiens, UniProt O75908).
T2 sequence (O75908 1-522): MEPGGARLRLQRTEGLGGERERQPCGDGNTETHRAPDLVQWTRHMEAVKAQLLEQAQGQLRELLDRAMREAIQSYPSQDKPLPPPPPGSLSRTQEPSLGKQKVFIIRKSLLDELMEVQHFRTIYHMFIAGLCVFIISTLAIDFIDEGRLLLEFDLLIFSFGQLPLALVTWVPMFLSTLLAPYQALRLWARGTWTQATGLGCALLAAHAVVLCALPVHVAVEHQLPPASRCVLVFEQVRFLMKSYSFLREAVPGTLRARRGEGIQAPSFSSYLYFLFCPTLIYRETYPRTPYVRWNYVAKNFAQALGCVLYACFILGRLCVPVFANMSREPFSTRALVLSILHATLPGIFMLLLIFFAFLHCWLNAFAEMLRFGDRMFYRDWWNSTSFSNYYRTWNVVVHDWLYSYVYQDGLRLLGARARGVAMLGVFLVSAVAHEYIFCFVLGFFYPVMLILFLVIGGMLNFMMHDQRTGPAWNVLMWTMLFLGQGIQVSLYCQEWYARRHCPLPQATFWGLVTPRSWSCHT

Data set [4] concerns the target T1, ACAT1. The conditions noted are these: Lee et al. 2004.
Where [5] appears, read: mouse model for Alzheimer disease.
Setting [6] is: continuous administration starting at PND 7.

As to `CC(C)c1cc(C(C)C)c(CC(=O)NS(=O)(=O)Oc2c(C(C)C)cccc2C(C)C)c(C(C)C)c1` [Avasimibe], in the data set on human macrophages, the “foam cell formation in macrophages” value is on record as “reduces foam cell formation”. Further, the safety entry (administered to rats, dogs, and humans) is listed as “safe”. In data set [1] (14.4 mg/kg/day), the “activity in mouse model for Alzheimer's disease” value was “beneficial activity”. For the same compound, in [1] (setting [5]), the amyloid plaque load result is reported as “significant decreases” and the cognitive deficits result is listed as “reduction in cognitive deficits”. Moreover, the “progression of coronary atherosclerosis” value in [2] (humans, in combination with a statin drug) is given as “failed to demonstrate efficacy”.
Regarding `CC(O)COC[C@H]1O[C@@H]2O[C@H]3[C@H](O)[C@@H](O)[C@@H](O[C@H]4[C@H](O)[C@@H](O)[C@@H](O[C@H]5[C@H](O)[C@@H](O)[C@@H](O[C@H]6[C@H](O)[C@@H](O)[C@@H](O[C@H]7[C@H](O)[C@@H](O)[C@@H](O[C@H]8[C@H](O)[C@@H](O)[C@@H](O[C@H]1[C@H](O)[C@H]2O)O[C@@H]8COCC(C)O)O[C@@H]7COCC(C)O)O[C@@H]6COCC(C)O)O[C@@H]5COCC(C)O)O[C@@H]4COCC(C)O)O[C@@H]3COCC(C)O` (stereo partly drawn) [HPCD, hydroxypropyl beta-cyclodextrin], the prolonged lifespan in the data set with NPC1^−/− mice (single injection at PND 7) was 27%. Also, in the data set on NPC1^−/− mice (weekly treatment), the cholesterol accumulation entry is “normalize cholesterol accumulation” and the survival result is recorded as “prolong survival”. Further, in the data set with NPC mice and NPC cats (mouse, in vivo), the “crossing the blood brain barrier” value is “difficulty in crossing the blood brain barrier”. Moreover, in the data set with NPC mice and NPC cats (treated NPC mice and NPC cats), the “macrophage activation in the lungs” value is “increases in macrophage activation”.
Turning to `CSc1cc(C)nc(SC)c1NC(=O)CN1CCN(CCSc2nc3ccccc3[nH]2)CC1` [K-604], the safety in vivo entry (laboratory animals) is given as “safe for use in vivo”.
On to `CCCCN1C[C@H](O)[C@@H](O)[C@H](O)[C@H]1CO` [Miglustat], for which, in the data set on NPC1^−/− mice (setting [6]), the clinical onset result is recorded as “significantly delayed” and the prolonged lifespan is 49%. Moreover, in the data set with NPC disease, the “patients with stabilized NPC disease progression” value is given as 80 % of patients.
Consider `CCCCCCCCN1CCc2c(C)c(CC(=O)O)c(C)c(NC(=O)C(C)(C)C)c21` [Pactimibe], for which the “potency on ACAT1 versus ACAT2” value with ACAT1 and ACAT2 is on record as “approximately equal potency”. In data set [2] (patients with familial hypercholesterolemia), the “efficacy as supplement to statin treatment” value is recorded as “lacked efficacy”.
As for `CCOC(=O)OC(=O)OCC` [diethyl pyrocarbonate], the “greater activity on ACAT1 compared to ACAT-2” value at ACAT1 [3] was 4 fold.
Take `COc1ccc([C@@H](O)[C@@H](C)Oc2ccc([C@H]3O[C@H](c4ccc(O[C@H](C)[C@H](O)c5ccc6c(c5)OCO6)c(OC)c4)[C@H](C)[C@H]3C)cc2OC)cc1OC` [manassantin B]: the “inhibition of hACAT-2” value at hACAT-2 (at 1 mM) was 32%.
For the compound saucerneol B, the IC50 is 124 µM on hACAT-2 (Lee et al. 2004) and 43 µM at ACAT1 [4].
